The results in this text go back to patent US20010011143A1, “Process for preparing phenoxyphenylsulfonyl halides” (priority 1998, published 2001).

As a reminder, the melting point is the temperature, or range, at which the solid turns liquid. Consider `O=S(=O)(Oc1ccc(F)cc1)c1ccc(Oc2ccc(F)cc2)cc1` [Example 1, 4-(4-Fluorophenoxy)benzenesulfonic Acid 4-Fluorophenyl Ester], for which the melting point lay within 78 to 83 °C.
